# Results published in US20240207308A1, “METHOD FOR CULTURING DENDRITIC CELLS” (NANOFAENTECH CO., LTD., priority 2021, published 2024).
# How the values were obtained:
# Type in all cases: cell-based, mouse
# [1] = test system: spleen dendritic cells; assay: Flow cytometry of CD86, MHC-II, CD80, CD40 on cultured spleen dendritic cells (self-activation); conditions: for increase in CD86 expression by self-activation: different concentrations up to 800 μg/mL; for increase in CD86 expression by self-activation / increase in the expression of CD86: 2×10^5/mL cells; for increase in the expression of CD86: each at 800 μg/mL, 24 hours
# Protocol: Mouse spleen dendritic cells were obtained by adding EDTA-BSS (Balanced Salt Solution) buffer and collagenase solution (DMEM containing 100 units of collagenase type IV, medium containing low glucose) to spleens of female C57BL/6 mice and cutting it with surgical scissors, mixing the same with 6 mL of collagenase treatment solution, and incubating the mixture for 30 minutes. The separated whole spleen tissue was filtered using a 70 μm cell strainer (Falcon), followed by centrifugation at 1800 rpm for 5 minutes thus to separate the cells. Red blood cells were removed by adding red blood cell lysis buffer (Sigma-Aldrich) to the cells and washed twice with RPMI-1640 medium containing 10% fetal bovine serum (FBS). Dendritic cells were reacted with CD11c^+ antibody-bound microbeads and isolated using CD11c Microbeads Ultrapure (MACS, Milteni Biotec, USA).
# In FIG. 2, in order to determine whether self-activation occurs when primary dendritic cells isolated from the spleen are cultured, dendritic cells were dispensed in a 24-well plate at 2×10^5/mL, and after culturing for 6 hours in RPMI-1640 medium at 37° C. under 5% CO2 condition, the expression levels of MHC-II, CD86, CD80 and CD40 were analyzed on the surface of dendritic cells using a flow cytometer (MACSQuant VYB flow cytometer, Miltenyi Biotec). Results measured using a flow cytometer were analyzed using FlowJo v10 (Tree Star, Ashland). The expression levels of CD86, CD80 and CD40 were shown as the percentage of cells stained with CD11c, and the expression level of MHC-II was shown as mean fluorescence intensity (MFI), which is the mean fluorescence intensity of fluorescence.
# In FIG. 7, when culturing spleen dendritic cells, each of the prepared peptides was added at a concentration of 200 μg/mL and the expression level of CD86 was measured 6 hours after culture. When each peptide was used alone for treatment, the expression of CD86 was not inhibited in spleen dendritic cells. […] Compared to when the cells were treated with these three kinds of peptides, the expression was not inhibited even when the two kinds of peptides were used together for treatment. * indicates statistical significance as P<0.05 or less compared to the P1, P1-2, and P2-1 conditions.
# In FIG. 9, peptides containing P1 and P2 and amino acids of these peptides as well as P3 peptide in a combination of three types were added to the spleen dendritic cell culture medium, and after culturing for 6 hours, the expression level of CD86 was measured by flow cytometry.
# In FIG. 24, different concentrations of LP1, LP2 and LP3 were added to reach a concentration of 800 μg/mL, and spleen dendritic cells (2×10^5/mL) were cultured for 6 hours or 24 hours, and the CD86 expression level was measured by flow cytometry (MACSQuant VYB flow cytometer, Miltenyi Biotec). The measured results were analyzed using FlowJo v10 (Tree Star, Ashland).
# In FIG. 25, when spleen primary dendritic cells were dispensed at 2×10^5/mL and cultured for 24 hours while scrambled peptides of S-LP1, S-LP2 and S-LP3 were each added at a concentration of 800 μg/mL, the increase in the expression of CD86 was not inhibited. Further, the expression of CD86 was not reduced even when the scrambled peptides S-P1, S-P2 and S-P3 were simultaneously treated at a concentration of 600 μg/mL, respectively.
# [2] = test system: spleen dendritic cells; assay: Fluorescence staining of CD86 in spleen dendritic cells, confocal microscope; conditions: without LPS, linker peptides 400 μg/mL, 24 hours
# Protocol: In FIG. 11, culturing spleen dendritic cells (2×10^5/mL) and the prepared peptides were added at a concentration of 200 μg/mL, respectively, and after 6 hours, the expression level of CD86 using a PE-conjugated anti-CD86 antibody (eBioscience) was measured through a confocal microscope after fluorescence staining. After culturing spleen primary dendritic cells for a certain period of time, intracellular CD86, F-actin and nuclear staining was implemented. Expression of actin was stained with FITC-conjugated phalloidin (eBioscience), and nuclear staining was conducted with Hoechst 33342 (Sigma-Aldrich). For this purpose, cells cultured in a 48-well plate were placed in a 4% paraformaldehyde fixing solution, and then fixed at room temperature for 20 minutes.
# Then, after washing twice with phosphate buffered saline solution, it was permeabilized with 0.1% Triton X-100 (Sigma-Aldrich) solution at room temperature for 5 minutes and washed twice with phosphate buffered saline solution. In order to remove non-specific staining, after reacting with 0.2% bovine serum albumin (Sigma-Aldrich) solution at room temperature for 20 minutes, it was washed twice with phosphate buffered saline solution. After that, the anti-CD86 antibody and phalloidine were diluted in 0.2% bovine serum albumin solution at a ratio of 1:40 and reacted for 40 minutes, washed 3 times with Tris buffer, placed on a slide glass, followed by counter-staining with Hoechst 33342 solution for nuclear staining of cells. After sealing with a cover glass, the cells were observed using a confocal laser microscope (K1 nanoscope).
# In FIG. 26, spleen dendritic cells (2×10^5/mL) were dispensed in a 48-well plate, and linker peptides were each added at a concentration of 400 μg/mL, followed by culturing for 24 hours. Activation of spleen dendritic cells was induced by adding 1 μg/mL of LPS to the culture medium. The cultured cells were placed in a 4% paraformaldehyde fixing solution and fixed at room temperature for 20 minutes. After fluorescence staining using PE-conjugated anti-CD86 antibody (eBioscience), it was measured with a confocal microscope (K1 Nanoscope, Korea). Intracellular actin expression was stained with FITC-conjugated phalloidin (eBioscience), and nuclear staining was conducted with Hoechst 33342 (Sigma-Aldrich). CD86 antibody and phalloidin were diluted 1:40 in 0.2% bovine serum albumin solution and used.
# [3] = test system: spleen primary dendritic cells; assay: ELISA of TNF-α / IL-12p40 secreted by cultured spleen primary dendritic cells; conditions: cells 2×10^5/mL, 24 hours, without LPS
# Protocol: In FIG. 12, spleen primary dendritic cells were dispensed at 1×10^6/mL and cultured for 24 hours, and then a concentration of TNF-α secreted from these cells in the culture medium was measured. As a result, it was confirmed that the secretion increased in a time-dependent manner. The concentration of TNF-α was measured at 450 nm using an ELISA kit (R&D systems) and a microplate analyzer (Synergy H1, Biotek). However, when dendritic cells were dispensed at 2×10^5/mL, CD86 expression was increased but TNF-α secretion was not increased (results not presented). * indicates statistical significance as P<0.05 or less compared with 3 h.
# In FIG. 13, spleen primary dendritic cells were dispensed at 1×10^6/mL and cultured for 24 hours. […] Furthermore, when P4, P5 and P6 peptides were added at a concentration of 200 μg/mL, respectively, the secretion of TNF-α was not inhibited.
# Therefore, it could be seen that fibronectin has a disadvantage of inhibiting the activation by stimulants although can maintain the inactivation of spleen dendritic cells. * indicates statistical significance as P<0.05 or less compared to -LPS.
# In FIG. 27, an ELISA kit (R&D systems) was used to measure the concentration of TNF-α secreted into the culture medium when spleen primary dendritic cells were dispensed at 2×10^5/mL and cultured for 24 hours. The concentration was determined at 450 nm by a microplate analyzer (Synergy H1, Biotek).
# [4] = test system: spleen T cells from Balb/c mice; assay: Mixed lymphocyte reaction: proliferation of CFSE-stained allogeneic T cells co-cultured with spleen dendritic cells; conditions: dendritic cells without peptide or fibronectin, activated with the stimulant, compared to control
# Protocol: Since the main role of activated dendritic cells is to induce antigen-specific T-cell activation and proliferation according to the stimulatory properties, it was investigated whether self-activated dendrite cells after culturing and dendritic cells activated with LPS after culturing with addition of peptides can induce T cell proliferation by mixed lymphocyte reaction (MLR) test. The spleen dendritic cells isolated from C57B/L6 mice were self-activated for 24 hours, otherwise, when cultured with addition of peptides or fibronectin, the cells were treated with LPS and activated. Spleen T cells from Balb/c mice were isolated using a CD4^+/CD8^+ T cell isolation kit (Miltenyi Biotec, Bergisch-Gladbach, Germany) and MACS column (Miltenyi Biotec), followed by 10 μM CFSE staining (Molecular Probes; Thermo Fisher Scientific Inc., USA). The activated dendritic cells and CFSE-stained T cells were co-cultured at a ratio of 1:20 for 4 days, and the T cell proliferation level was measured as a percentage of cells with decreased CFSE. […] In FIG. 22, the amount of cytokines secreted after co-culture of spleen dendritic cells and T cells for 4 days was measured by ELISA method. […]
substance,measurement,setting,value
laminin,expression level of CD86 or MHC-II (self-activation),"[1]; 200 μg/mL (laminin 200 μg/mL or higher), cultured 6 hours",self-activation was not inhibited
same,"expression of MHC-II, CD80 and CD40 in addition to CD86","[1]; cultured 6 hours or 24 hours, peptides 200 μg/mL each",no effect was observed
PHSRNGSRGDGSLDV (Linker peptide LP1),increase in CD86 expression by self-activation,[1]; 6 hours or 24 hours,inhibited
same,CD86-expressing cells,[2],almost not observed
same,TNF-α secretion,[3],hardly occurred
"NRPHSGSDRGGSVDL (Scrambled linker peptide S-LP1) [scrambled linker peptide, control, reference compound]",increase in the expression of CD86,[1],not inhibited
PHSRNGGGSRGDGGGSLDV (Linker peptide LP2),increase in CD86 expression by self-activation,[1]; 6 hours or 24 hours,inhibited
same,CD86-expressing cells,[2],almost not observed
same,TNF-α secretion,[3],hardly occurred
"NRPHSGGGSGGGSDRGGGGSVDL (Scrambled linker peptide S-LP3) [scrambled linker peptide, control, reference compound]",increase in the expression of CD86,[1],not inhibited
PHSRNGGGSGGGSRGDGGGSLDV (Linker peptide LP3),increase in CD86 expression by self-activation,[1]; 6 hours or 24 hours,inhibited
same,"self-activation inhibitory effect compared among LP1, LP2 and LP3","[1]; up to 800 μg/mL, 6 hours or 24 hours",greatest self-activation inhibitory effect
same,CD86-expressing cells,[2],almost not observed
same,TNF-α secretion,[3],hardly occurred
"NRPHSGGGSDRGGGGSVDL (Scrambled linker peptide S-LP2) [scrambled linker peptide, control, reference compound]",increase in the expression of CD86,[1],not inhibited
"polyinosinic:polycytidylic acid [poly (I:C), reference compound]",proliferation of co-cultured spleen T cells,[4],slightly increased
Pro-His-Ser-Arg-Asn (PHSRN; Fibronectin motif P3) [Peptide P3],expression level of CD86,"[1]; treated alone at 600 μg/mL, 6 hours",no inhibitory effect
